Laboratory results as given in ChEMBL document CHEMBL5537194, “Tight-Binding Small-Molecule Carboxylesterase 2 Inhibitors Reduce Intracellular Irinotecan Activation” (J Med Chem, 2024).
pIC50: −log10 of the molar value.

Legend:
Cocaine esterase = target: T1, Cocaine esterase (Homo sapiens, UniProt O00748); test: Inhibition of human recombinant CES2 activity assessed as fluorescence of the AP product using Benz-AP as substrate
T1 sequence (O00748 whole entry): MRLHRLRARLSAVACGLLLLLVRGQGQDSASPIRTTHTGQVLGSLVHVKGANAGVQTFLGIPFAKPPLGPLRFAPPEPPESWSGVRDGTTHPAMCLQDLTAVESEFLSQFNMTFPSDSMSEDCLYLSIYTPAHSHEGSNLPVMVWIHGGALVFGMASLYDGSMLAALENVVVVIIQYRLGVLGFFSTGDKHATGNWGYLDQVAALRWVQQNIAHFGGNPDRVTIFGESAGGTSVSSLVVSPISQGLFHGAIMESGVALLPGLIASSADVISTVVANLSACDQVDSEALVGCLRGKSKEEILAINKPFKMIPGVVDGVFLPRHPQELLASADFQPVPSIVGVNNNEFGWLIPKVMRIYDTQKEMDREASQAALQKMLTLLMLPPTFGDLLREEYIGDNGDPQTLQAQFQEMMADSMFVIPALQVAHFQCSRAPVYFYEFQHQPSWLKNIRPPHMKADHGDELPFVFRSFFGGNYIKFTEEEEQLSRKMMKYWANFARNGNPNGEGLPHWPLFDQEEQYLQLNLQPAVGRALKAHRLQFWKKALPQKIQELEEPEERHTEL

CES2 (cocaine esterase) [1] = target: T2, CES2 (cocaine esterase) (Homo sapiens, UniProt O00748); test: in vitro; conditions: recombinant CES2, probe CPT-11 (conversion to SN-38)
T2 sequence (O00748 whole entry): T1 sequence (O00748 whole entry)

CES2 (cocaine esterase) [2] = target: T2, CES2 (cocaine esterase); test: Inhibition of human recombinant CES2 activity assessed as fluorescence of the AP product using Benz-AP as substrate by measuring residual activity at 40 uM relative to control; conditions: recombinant CES2, probe Benz-AP
PANC-1 = test: Cytotoxicity against human PANC-1 cells assessed as cell viability incubated for 14 days by crystal violet-based clonogenic assay; conditions: PANC-1, 336 h
[3] = Inhibition of human CES1 activity at 40 uM measured after 20 mins

## COc1cc2c(cc1OC)C(C)N(C(=O)c1cc3c(s1)-c1ccccc1S(=O)(=O)C3)CC2 (configuration not stated)
Cocaine esterase
  pIC50: > 8.00
CES2 (cocaine esterase) [1]
  inhibition at 10 min, 12 µM: 31%
CES2 (cocaine esterase) [2]
  activity at 40 µM: 13%

## CCn1c(=O)c2sc(N3CCCC3)nc2n(CC(=O)Nc2cccc(Cl)c2C)c1=O
CES2 (cocaine esterase) [1]
  inhibition at 10 min, 12 µM: 51%
CES2 (cocaine esterase) [2]
  activity at 40 µM: 37%

## CCc1c2c(nc3ccc(OC(=O)N4CCC(N5CCCCC5)CC4)cc13)-c1cc3c(c(=O)n1C2)COC(=O)[C@]3(O)CC [IRINOTECAN]
PANC-1
  pIC50: 4.96

## O=C(CSc1cn(CC(=O)N2CCCC2)c2ccccc12)Nc1ccc(F)cc1F
Cocaine esterase
  pIC50: > 8.00
CES2 (cocaine esterase) [1]
  inhibition at 10 min, 12 µM: 91%
CES2 (cocaine esterase) [2]
  activity at 40 µM: 0.9%

## CC(C)CN1C(=O)CCc2cc(NC(=O)Cc3cccc(F)c3)ccc21
Cocaine esterase
  pIC50: 6.75
CES2 (cocaine esterase) [1]
  inhibition at 10 min, 12 µM: 95%
CES2 (cocaine esterase) [2]
  activity at 40 µM: -0.17%

## Cc1ccc(Nc2nc(C(=O)NCc3ccccc3)cc3occc23)cc1
Cocaine esterase
  pIC50: > 8.00
CES2 (cocaine esterase) [1]
  inhibition at 10 min, 12 µM: 63%
CES2 (cocaine esterase) [2]
  activity at 40 µM: 3%

## CC(C)c1ccccc1OC(=O)NCCc1ccc2ccccc2c1
[3]
  pIC50: 7.64

## Cc1ccc(CN2Cc3cc4ccc(C)c(C)c4nc3OC2=O)o1
[3]
  pIC50: 7.21
Cocaine esterase
  pIC50: 7.74
CES2 (cocaine esterase) [2]
  activity at 40 µM: 0.2%

## CCOc1ccc2ncc(S(=O)(=O)c3ccc(OC)cc3)c(N3CCC4(CC3)OCCO4)c2c1
Cocaine esterase
  pIC50: 7.18
CES2 (cocaine esterase) [1]
  inhibition at 10 min, 12 µM: 94%
CES2 (cocaine esterase) [2]
  activity at 40 µM: 1.3%
